{
  "source": "patent US20050222423A1",
  "about": "“Carboxylic acid derivative” (TAISHO PHAR[…]., LTD., priority 2001, published 2005)",
  "key": {"[1]": {"details": "pH 6.9; phosphate buffer 20 mM; 25° C.", "procedure": "1 mg of a test compound was weighed out in a threaded test tube, 1 ml of a phosphate buffer (pH: 6.8; 20 mM; ion intensity=0.15) was added thereto and, after shaking for 2 hours at room temperature under light-shielded condition, was incubated for 22 hours at 25° C. A supernatant obtained by centrifuging the test tube for 10 minutes at 3000 rpm at 25° C. was further centrifuged for 10 minutes at 11000 rpm at 25° C. The thus-obtained supernatant was diluted with a water/acetonitrile (1:1) mixture with a dilution ratio of 2 times to 21 times to prepare a sample solution (A). Also, 0.5 mg of the test compound was dissolved in 5 ml of acetonitrile, and diluted two times with acetonitrile to prepare a standard solution (B). 10 μl of the sample solution (A) and 10 μl of the standard solution (B) were subjected to measurement according to HPLC method to determine a peak area of the test compound in each of the solutions. The solubility (mg/ml) of the test compound was calculated according to the following equation using the measured values.\nColumn temperature: 40° C."}, "[2]": {"target": "T1, Flt-1 (Homo sapiens, UniProt P17948)", "T1 construct": "expressed in transfected cells; host or cells: NIH3T3 cells (G418-selected)", "T1 sequence (P17948 27-1338)": "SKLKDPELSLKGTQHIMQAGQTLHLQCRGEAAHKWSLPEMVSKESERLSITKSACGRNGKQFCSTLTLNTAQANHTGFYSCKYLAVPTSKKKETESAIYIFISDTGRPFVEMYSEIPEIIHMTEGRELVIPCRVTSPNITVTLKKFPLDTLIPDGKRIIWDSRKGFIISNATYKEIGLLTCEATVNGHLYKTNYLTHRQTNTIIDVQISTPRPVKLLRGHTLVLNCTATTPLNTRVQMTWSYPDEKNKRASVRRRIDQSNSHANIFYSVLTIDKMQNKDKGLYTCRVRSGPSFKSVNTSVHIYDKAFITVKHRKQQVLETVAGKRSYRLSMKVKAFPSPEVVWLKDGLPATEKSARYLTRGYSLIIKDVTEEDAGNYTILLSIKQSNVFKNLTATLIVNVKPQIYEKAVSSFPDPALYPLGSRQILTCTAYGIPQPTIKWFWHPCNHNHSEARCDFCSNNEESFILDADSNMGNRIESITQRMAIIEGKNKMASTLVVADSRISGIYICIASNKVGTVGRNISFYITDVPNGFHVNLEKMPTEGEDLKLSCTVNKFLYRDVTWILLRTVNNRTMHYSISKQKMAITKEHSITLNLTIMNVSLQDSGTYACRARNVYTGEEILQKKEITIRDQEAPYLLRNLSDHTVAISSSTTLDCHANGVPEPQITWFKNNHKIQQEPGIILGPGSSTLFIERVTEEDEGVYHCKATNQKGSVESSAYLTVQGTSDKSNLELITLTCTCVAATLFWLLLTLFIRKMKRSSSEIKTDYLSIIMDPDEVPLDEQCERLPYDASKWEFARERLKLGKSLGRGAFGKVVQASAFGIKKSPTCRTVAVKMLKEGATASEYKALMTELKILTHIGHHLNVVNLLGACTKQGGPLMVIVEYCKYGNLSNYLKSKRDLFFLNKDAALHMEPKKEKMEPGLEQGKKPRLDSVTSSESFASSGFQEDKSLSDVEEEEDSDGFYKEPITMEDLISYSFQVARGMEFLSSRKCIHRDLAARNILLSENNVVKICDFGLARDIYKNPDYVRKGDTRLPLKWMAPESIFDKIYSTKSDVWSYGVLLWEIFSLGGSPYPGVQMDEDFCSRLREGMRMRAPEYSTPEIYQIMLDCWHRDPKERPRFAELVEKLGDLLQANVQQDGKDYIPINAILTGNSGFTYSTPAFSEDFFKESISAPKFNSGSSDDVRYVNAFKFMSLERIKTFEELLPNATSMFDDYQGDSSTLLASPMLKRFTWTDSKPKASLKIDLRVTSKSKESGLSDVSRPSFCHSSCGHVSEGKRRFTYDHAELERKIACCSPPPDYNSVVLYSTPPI", "test": "VEGF Receptor-Binding Test ([125I]-VEGF binding to NIH3T3 cells in which Flt-1 was forced to be expressed)", "details": "test compound concentration 1 μg/ml; [125I]-VEGF 25 pM; 90 minutes at 4° C.", "method": "According to the method described in a document (Cell Growth & Differentiation, vol. 7, pp. 213-221, 1996), the following tests were carried out.\nNIH3T3 cells, in which Flt-1 was forced to be expressed, were seeded on a 24-well collagen-coated plate (7×10^4 cells/well), and were cultured in Dulbecco's modified Eagle's medium (DMEM) containing 10% bovine serum and 200 μg/ml of Geneticin G418 for 24 hours at 37° C. under an atmosphere of 5% carbon dioxide gas. The cells were preincubated in Buffer A [containing 10 mM HEPES (N-2-hydroxyethylpiperazine-N′-2-ethanesulfonic acid) and 0.1% BSA (bovine serum albumin) in DMEM] for 30 minutes at 4° C. Subsequently, the medium was replaced with Buffer B (containing 10 mM HEPES and 0.5% BSA in DMEM). […] The radioactivity of the lysed cells in each well was measured by means of a gamma counter, and a total binding quantity of [^125I]-VEGF was calculated. Non-specific binding quantity of [^125I]-VEGF was measured by competition assay in the presence of 10 nM non-labeled VEGF. The specific binding quantity of [^125I]-VEGF was calculated from the difference between the total binding quantity of [^125I]-VEGF and non-specific binding quantity of ^125I]-VEGF. The binding inhibition index of the test compounds was calculated by the following equation."}},
  "data": [
    {"smiles": "CCCCCCCCCCCCCCCCCCOc1ccc(CCC(=O)Nc2ccc(Oc3ccc(C(=O)O)cc3)c(C(=O)O)c2)cc1", "note": "[a, 5-Amino-2-(4-carboxyphenoxy)-N-[3-{4-(1-octadecyloxy)-phenyl}propionyl]benzoic acid]", "values": [
      {"measurement": "Solubility", "setting": "[1]", "value": 0.029, "unit": "µg/mL"},
      {"measurement": "Inhibition Index", "setting": "[2]", "value": 65, "unit": "%"}
    ]}
  ]
}
